Experiments:
MCF-7 C20 cells [1] = assay: 3H-thymidine proliferation assay, MCF-7 C20 cells; assay type: cell-based, human; conditions: cells grown in the absence of estrogen, estrogen added; 3H-thymidine (FIG. 11D)
Protocol: Retroviral transfections. The various genes used in this study were cloned into pMSCV-Blasto, pBabe-Puro or pBabe-Neo retroviral vectors. MCF-7 cells were stably transfected using available procedures. Briefly, amphotropic 293 cells were transfected with retroviral vectors encoding selected Nod1, Nod2 and other proteins. Twenty-four hours post-transfection, cells were incubated at 32° C. overnight to produce viral particles. Target cells were infected the next day with virus-containing 293 cell supernatants containing recombinant retroviral particles. Cells were selected with 10 μg/ml blasticidin S (Calbiochem EMD Biosciences Inc., San Diego, Calif.), 500 μg/ml […] (Invitrogen, Carlsbad, Calif.) or 5 μg/ml puromycin (Calbiochem). The expression of all constructs was confirmed by Western blot analysis. To determine the effects of 17β-estradiol (Calbiochem), cells were cultured in phenol red-free DMEM supplemented with […]. Cells were seeded in 96 well plates with various concentration of 17β-estradiol (E2) for 24 h and pulsed with ^3H-thymidine (1 μCi/well, MP Biomedicals, Irvine, Calif.). Cells were harvested on glass fiber filters and radioactivity measured by liquid scintillation. […]

MCF-7 C20 cells [2] = assay: Human xenograft in SCID mice, MCF-7 C20 cells; assay type: in vivo; conditions: mice injected with MCF-7 C20 cells, estrogen pellets present (FIG. 11B)
Protocol: (§1) Human xenografts in nude mice. MCF-7 Blasto, MCF-7 C20 and MCF-7 C20/Nod1 cells were trypsinized, washed once with PBS and resuspended to a concentration of 1.5×10^7/ml. Two hundred microliters of each suspension were inoculated subcutaneously into the flank of athymic SCID/SCID or SCID/Nod (non-obese diabetic) female mice. Tumor size was assessed once a week. Tumor volume was calculated.
(§2) Nod1 controls tumor formation. Nod1-dependent apoptotic pathways might be important in a number of biological processes, including tumor cell growth regulation and a failure of malignant cells to undergo cell death, leading to tumorigenesis. A xenograft model of tumor growth in SCID mice was used to examine the role that Nod1 plays in tumor growth and tumor rejection. Populations of MCF-7Blasto, MCF-7C20 and MCF-7C20Nod1 cells (each totaling about 3×10^6 cells), were separately injected subcutaneously into the flanks of female mice to induce tumor growth in SCID/SCID or SCID/Nod1 mice. Animals were scored for tumor formation once a week post-injection for up to 8 weeks.
(§3) In most studies, tumor formation by MCF-7 cells requires supplementation of estrogens for tumorigenesis in nude mice, even when cells are inoculated at high concentration. To further examine the role of estrogen in tumorigenesis, all three cell lines were injected into mice along with estrogen pellets (FIG. 11B). […]

MCF-7 C20 cells [3] = assay: Propidium iodide exclusion cell death assay, Nod1-deficient MCF-7 C20 cells; assay type: cell-based, human; conditions: C20 cells, charcoal-treated serum, γTriDAP/CHX (FIG. 12A, middle panel)
Protocol: Cell viability assays. […] Subsequently, cells were harvested, washed twice in FACS buffer (PBS containing 1% FCS and 0.1% NaN3) and resuspended in propidium iodide (PI)—containing FACS buffer (4 ug/ml). The extent of cell death was analyzed with a FACSCalibur flow cytometer (Becton Dickinson, Mountain View, Calif.). DAPI staining: MCF-7 cells were plated in chamber slides, and stimulated for 2 days. Cells were washed with PBS and apoptotic nuclei were stained with 1 μg/ml DAPI (Sigma Chemical Co., St. Louis, Mo.). Cells were fixed in 4% paraformaldehyde and examined by fluorescence microscopy.
(§4) To further investigate the role of Nod1 in apoptosis, a variety of cell types were incubated with the Nod1 ligand, […] (γTriDAP), which specifically activates Nod1. The cell types tested included the parental MCF-7 cell line, the Nod1-deficient MCF-7C20 clone, and a cell line engineered to contain an additional human Nod1 allele (MCF-7Nod1) so that Nod1 was over-expressed. To determine whether the resistance of C20 cells to γTriDAP-induced apoptosis resulted from the absence of Nod1, human Nod1 was stably expressed in MCF-7 C20 cells to produce Nod1-sufficient C20 cells (C20/Nod1). As another control, the parental MCF-7 cell line was transfected with an empty retroviral vector to generate MCF-7 Blasto cells. Cells were treated with γTriDAP in the presence or absence of cycloheximide (CHX) and cell death was then determined by propidium iodide staining and flow cytometry.

MCF-7 C20/Nod1 = assay: Human xenograft in SCID mice, MCF-7 C20/Nod1 cells; assay type: in vivo; conditions: mice that received MCF-7 C20/Nod1, estrogen pellets present (FIG. 11B)
Protocol: as §1, §2, §3

MCF-7 Blasto cells = assay: Human xenograft in SCID mice, MCF-7 Blasto cells; assay type: in vivo; conditions: mice injected with MCF-7 Blasto cells, estrogen pellets present (FIG. 11B)
Protocol: as §1, §2, §3

MCF-7 C20/Nod1 cells = assay: Propidium iodide exclusion apoptosis assay, MCF-7 C20/Nod1 cells; assay type: cell-based, human; conditions: C20/Nod1 and Blasto cells, charcoal-treated serum, increasing estrogen (FIG. 12A)
Protocol: Cell viability assays. Propidium iodide exclusion assay: Cells were stimulated as indicated for 2 days. Subsequently, cells were harvested, washed twice in FACS buffer (PBS containing 1% FCS and 0.1% NaN3) and resuspended in propidium iodide (PI)—containing FACS buffer (4 ug/ml). The extent of cell death was analyzed with a FACSCalibur flow cytometer (Becton Dickinson, Mountain View, Calif.). DAPI staining: MCF-7 cells were plated in chamber slides, and stimulated for 2 days. Cells were washed with PBS and apoptotic nuclei were stained with 1 μg/ml DAPI (Sigma Chemical Co., St. Louis, Mo.). Cells were fixed in 4% paraformaldehyde and examined by fluorescence microscopy.
as §4
To determine whether the presence of estrogens modulates Nod1-induced apoptotic pathway, cells were cultured in medium containing charcoal-treated serum.

## 17β-estradiol [estrogen]
MCF-7 C20 cells [1]
  proliferative response: strong proliferative response
MCF-7 C20 cells [2]
  tumor growth: grew even larger
MCF-7 C20 cells [3]
  effect of estrogen upon apoptosis: little or no effect
MCF-7 C20/Nod1
  tumor growth: did not grow tumors
MCF-7 Blasto cells
  tumor growth: tumors grew
MCF-7 C20/Nod1 cells
  effect of estrogen upon γTriDAP-induced apoptosis: apoptosis increased in a dose-dependent manner

Source: patent US20060194740A1, “NOD1 as an anti-tumor agent” (priority 2005, published 2006)
